These results are taken from patent US8314112B2 (Novartis AG, priority 2008, dated 2012).

B1: follistatin: "follistatin, an antagonist of activin signalling" (protein, UniProt P19883 30-344, looked up)
Follistatin: GNCWLRQAKNGRCQVLYKTELSKEECCSTGRLSTSWTEEDVNDNTLFKWMIFNGGAPNCIPCKETCENVDCGPGKKCRMNKKNKPRCVCAPDCSNITWKGPVCGLDGKTYRNECALLKARCKEQPELEVQYQGRCKKTCRDVFCPGSSTCVVDQTNNAYCVTCNRICPEPASSEQYLCGNDGVTYSSACHLRKATCLLGRSIGLAYEGKCIKAKSCEDIQCTGGKKCLWDFKVGRGRCSLCDELCPDSKSDEPVCASDNATYASECAMKEAACSSGVLLEVKHSGSCNSISEDTEEEEEDEDQDYSFPISSILEW

For the first data set, the system named is bleomycin-induced pulmonary fibrosis.
Assay: not given
Particulars: bleomycin-treated rats; cited from earlier work.
Consider B1, for which the lung fibrosis result is recorded as “attenuated lung fibrosis”; the “number of macrophages and neutrophils in bronchoalveolar lavage” value was “significantly reduced”.

In another data set the target is T1, human ALK5 (kinase domain, ALK5 T204D) (Homo sapiens, UniProt P36897, T204D).
T1 construct: The kinase domain of human ALK5 (amino acids 200-503); made in house; host or cells: insect cells (baculovirus)
T1 sequence (P36897 200-503 T204D): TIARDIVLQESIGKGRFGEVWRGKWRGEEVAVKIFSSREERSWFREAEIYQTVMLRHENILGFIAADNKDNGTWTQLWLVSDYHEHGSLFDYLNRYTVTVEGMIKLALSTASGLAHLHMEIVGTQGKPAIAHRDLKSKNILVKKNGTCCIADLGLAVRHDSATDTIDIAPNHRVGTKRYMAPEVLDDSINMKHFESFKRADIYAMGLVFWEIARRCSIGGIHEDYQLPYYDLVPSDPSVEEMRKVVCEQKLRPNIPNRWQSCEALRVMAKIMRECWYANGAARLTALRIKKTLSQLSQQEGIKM
Put plainly: ALK5 kinase assay ([33P] phosphate incorporation into casein). Type of data set: biochemical. Particulars: casein substrate, 1 μM unlabelled ATP. The gist of the method:
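His-tagged human ALK5 T204D kinase domain (aa 200-503, constitutively active, baculovirus/insect-cell expressed), 50 ng/well, preincubated 10 min with compound and dephosphorylated casein (200 μg/well) in Tris pH 7.4/MgCl2/MnCl2. Reaction started with 1 μM ATP plus [33P]ATP, 50 min at room temperature, EDTA-stopped; casein-bound 33P counted by scintillation after filter capture.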
Consider `Cc1cccc(-c2cc(-c3cncc(-c4ccc(CNCCC(=O)O)cc4)c3)c3cc[nH]c3n2)n1` [Example 140, 3-(4-{5-[6-(6-Methyl-pyridin-2-yl)-1H-pyrrolo[2,3-b]pyridin-4-yl]-pyridin-3-yl}-benzylamino)-propionic acid], for which 6.2 nM corresponded to half-maximal inhibition (IC50). The same measure, in the same setting: under `COC(=O)CN(C)Cc1cccc(-c2cncc(-c3cc(-c4cccc(C)n4)nc4[nH]ccc34)c2)c1` [Example 141, [Methyl-(3-{5-[6-(6-methyl-pyridin-2-yl)-1H-pyrrolo[2,3-b]pyridin-4-yl]-pyridin-3-yl}-benzyl)-amino]-acetic acid methyl ester] stands 17 nM. `Cc1cccc(-c2cc(-c3cncc(-c4cccc(CN(C)CCO)c4)c3)c3cc[nH]c3n2)n1` [Example 142, 2-[Methyl-(3-{5-[6-(6-methyl-pyridin-2-yl)-1H-pyrrolo[2,3-b]pyridin-4-yl]-pyridin-3-yl}-benzyl)-amino]-ethanol] yielded an IC50 of 10 nM. Molecule `Cc1cccc(-c2cc(-c3cncc(-c4cccc(CN(C)CC(=O)O)c4)c3)c3cc[nH]c3n2)n1` [Example 143, [Methyl-(3-{5-[6-(6-methyl-pyridin-2-yl)-1H-pyrrolo[2,3-b]pyridin-4-yl]-pyridin-3-yl}-benzyl)-amino]-acetic acid] displayed an IC50 of 30 nM.

Turning to `Cc1cccc(-c2nc(-c3cncc(-c4cccc(CN(C)CCO)c4)c3)c3cc[nH]c3n2)n1` [Example 144, 2-[Methyl-(3-{5-[2-(6-methyl-pyridin-2-yl)-7H-pyrrolo[2,3-d]pyrimidin-4-yl]-pyridin-3-yl}-benzyl)-amino]-ethanol], 19 nM corresponded to half-maximal inhibition (IC50). As for `Cc1cccc(-c2nc(-c3cncc(-c4cccc(CN(C)CC(=O)O)c4)c3)c3cc[nH]c3n2)n1` [Example 145], the IC50 is 26 nM. Same read-out and setting: under `COC(=O)CNCc1cccc(-c2cncc(-c3nc(-c4cccc(C)n4)nc4[nH]ccc34)c2)c1` [Example 146, (3-{5-[2-(6-Methyl-pyridin-2-yl)-7H-pyrrolo[2,3-d]pyrimidin-4-yl]-pyridin-3-yl}-benzylamino)-acetic acid methyl ester] stands 27 nM; under `Cc1cccc(-c2nc(-c3cncc(-c4cccc(CNCCO)c4)c3)c3cc[nH]c3n2)n1` [Example 147, 2-(3-{5-[2-(6-Methyl-pyridin-2-yl)-7H-pyrrolo[2,3-d]pyrimidin-4-yl]-pyridin-3-yl}-benzylamino)-ethanol], 10 nM; under `Cc1cccc(-c2nc(-c3cncc(-c4cccc(CNCC(=O)O)c4)c3)c3cc[nH]c3n2)n1` [Example 148, (3-{5-[2-(6-Methyl-pyridin-2-yl)-7H-pyrrolo[2,3-d]pyrimidin-4-yl]-pyridin-3-yl}-benzylamino)-acetic acid], 17 nM.

As for `COC(=O)CNCc1ccc(-c2cncc(-c3nc(-c4cccc(C)n4)nc4[nH]ccc34)c2)cc1` [Example 149, (4-{5-[2-(6-Methyl-pyridin-2-yl)-7H-pyrrolo[2,3-d]pyrimidin-4-yl]-pyridin-3-yl}-benzylamino)-acetic acid methyl ester], the IC50 came out at 8 nM. On the same count and under the same terms, next, `Cc1cccc(-c2nc(-c3cncc(-c4ccc(CNCC(=O)O)cc4)c3)c3cc[nH]c3n2)n1` [Example 150, (4-{5-[2-(6-Methyl-pyridin-2-yl)-7H-pyrrolo[2,3-d]pyrimidin-4-yl]-pyridin-3-yl}-benzylamino)-acetic acid]: 17 nM.

As for `Cc1cccc(-c2nc(-c3cncc(-c4ccc(CNCCO)cc4)c3)c3cc[nH]c3n2)n1` [Example 151], the IC50 amounted to 5.8 nM. Molecule `COC(=O)CN(C)Cc1ccc(-c2cncc(-c3cc(-c4cccc(C)n4)nc4[nH]ccc34)c2)cc1` [Example 152, [Methyl-(4-{5-[6-(6-methyl-pyridin-2-yl)-1H-pyrrolo[2,3-b]pyridin-4-yl]-pyridin-3-yl}-benzyl)-amino]-acetic acid methyl ester] registered an IC50 of 10 nM.

`Cc1cccc(-c2cc(-c3cncc(-c4ccc(CN(C)CCO)cc4)c3)c3cc[nH]c3n2)n1` [Example 153, 2-[Methyl-(4-{5-[6-(6-methyl-pyridin-2-yl)-1H-pyrrolo[2,3-b]pyridin-4-yl]-pyridin-3-yl}-benzyl)-amino]-ethanol] had an IC50 of 11 nM.

On to `Cc1cccc(-c2cc(-c3cncc(-c4ccc(CN(C)CC(=O)O)cc4)c3)c3cc[nH]c3n2)n1` [Example 154, [Methyl-(4-{5-[6-(6-methyl-pyridin-2-yl)-1H-pyrrolo[2,3-b]pyridin-4-yl]-pyridin-3-yl}-benzyl)-amino]-acetic acid acid], for which it took 6.4 nM to reach half-maximal inhibition (IC50). On the same count and under the same terms, next, `Cc1cccc(-c2cc(-c3cncc(C#CCN4CCC(F)(F)C4)c3)c3cc[nH]c3n2)n1` [Example 155, 4-{5-[3-(3,3-Difluoro-pyrrolidin-1-yl)-prop-1-ynyl]-pyridin-3-yl}-6-(6-methyl-pyridin-2-yl)-1H-pyrrolo[2,3-b]pyridine]: 48 nM; `Cc1cccc(-c2cc(-c3cncc(-c4cccc(CC(=O)O)c4)c3)c3cc[nH]c3n2)n1` [Example 156, (3-{5-[6-(6-Methyl-pyridin-2-yl)-1H-pyrrolo[2,3-b]pyridin-4-yl]-pyridin-3-yl}-phenyl)-acetic acid]: 11 nM; `Cc1cccc(-c2cc(-c3cncc(-c4ccc(CC(=O)O)cc4)c3)c3cc[nH]c3n2)n1` [Example 157, (4-{5-[6-(6-Methyl-pyridin-2-yl)-1H-pyrrolo[2,3-b]pyridin-4-yl]-pyridin-3-yl}-phenyl)-acetic acid]: 8 nM. Same read-out and setting: next, `Cc1cccc(-c2cc(-c3cncc(C#CCN4CCOCC4)c3)c3cc[nH]c3n2)n1` [Example 158, 6-(6-Methyl-pyridin-2-yl)-4-[5-(3-morpholin-4-yl-prop-1-ynyl)-pyridin-3-yl]-1H-pyrrolo[2,3-b]pyridine]: 27 nM.

In turn, `Cc1cccc(-c2cc(-c3cncc(-c4ccc(CCC(=O)O)cc4)c3)c3cc[nH]c3n2)n1` [Example 159, 3-(4-{5-[6-(6-Methyl-pyridin-2-yl)-1H-pyrrolo[2,3-b]pyridin-4-yl]-pyridin-3-yl}-phenyl)-propionic acid] returned an IC50 of 6.5 nM. Molecule `Cc1cccc(-c2cc(-c3cncc(-c4ccc(C(C)(C)N(C)C)cc4)c3)c3cc[nH]c3n2)n1` [Example 160, Dimethyl-[1-methyl-1-(4-{5-[6-(6-methyl-pyridin-2-yl)-1H-pyrrolo[2,3-b]pyridin-4-yl]-pyridin-3-yl}-phenyl)-ethyl]-amine] had an IC50 of 5.9 nM.

Take `Cc1cccc(-c2cc(-c3cncc(-c4ccc(C(C)(C)N5CCOCC5)cc4)c3)c3cc[nH]c3n2)n1` [Example 161, 4-{5-[4-(1-Methyl-1-morpholin-4-yl-ethyl)-phenyl]-pyridin-3-yl}-6-(6-methyl-pyridin-2-yl)-1H-pyrrolo[2,3-b]pyridine]: the IC50 is 19 nM. Compared with the last molecule, the IC50 is about 3.2-fold higher. In turn, `Cc1cccc(-c2cc(-c3cncc(-c4ccc(C(C)(C)NCCO)cc4)c3)c3cc[nH]c3n2)n1` [Example 162, 2-[1-Methyl-1-(4-{5-[6-(6-methyl-pyridin-2-yl)-1H-pyrrolo[2,3-b]pyridin-4-yl]-pyridin-3-yl}-phenyl)-ethylamino]-ethanol] registered a 50% inhibitory concentration (IC50) of 7 nM. Same read-out and setting: under `Cc1cccc(-c2cc(-c3cncc(-c4ccc(C(C)(C)N(C)CCO)cc4)c3)c3cc[nH]c3n2)n1` [Example 163, 2-{Methyl-[1-methyl-1-(4-{5-[6-(6-methyl-pyridin-2-yl)-1H-pyrrolo[2,3-b]pyridin-4-yl]-pyridin-3-yl}-phenyl)-ethyl]-amino}-ethanol] stands 6.6 nM; under `Cc1cccc(-c2cc(-c3cncc(-c4ccc(C(C)(C)N)cc4C)c3)c3cc[nH]c3n2)n1` [Example 164, 1-Methyl-1-(3-methyl-4-{5-[6-(6-methyl-pyridin-2-yl)-1H-pyrrolo[2,3-b]pyridin-4-yl]-pyridin-3-yl}-phenyl)-ethylamine], 6.3 nM.

Another data set concerns dimethylnitrosamine induced liver fibrosis.
Assay: not given
Particulars: given therapeutically to rat, 3 weeks treatment; cited from earlier work.
For the molecule `c1ccc(-c2cc(-c3cn[nH]c3-c3ccccn3)ccn2)cc1` [GW6604], the “inhibition of extracellular matrix deposition” value was 60% and the “prevention of death rate” value is 40%.

Staying with this data set, now noted: rat, in vivo; cited from earlier work.
With `c1ccc(-c2cc(-c3cn[nH]c3-c3ccccn3)ccn2)cc1` [GW6604], the side effects result is reported as “no obvious side effects”.

One may read the IC50 as the concentration at which inhibition is half-maximal. Lower therefore signals higher potency.
